The record followed here is US9174974B2, “Macrocyclic factor VIIa inhibitors” (BRISTOL-MYERS SQUIBB COMPANY, priority 2012, dated 2015).

Assay [1] addresses human FVIIa (Homo sapiens (Human), UniProt P08709). Kind of assay: FVIIa Ki (37° C.), FVIIa-Xase assay. Format: biochemical. To be noted: for Ki: read-out: FVIIa Ki, nM 37° C.; for Ki(HK1)/Ki(FVIIa): selectivity ratio, tissue kallikrein (HK1) vs FVIIa.
Assay [2] addresses tissue kallikrein (HK1) (Homo sapiens (Human), UniProt P06870). Kind of assay: Tissue kallikrein-1 (HK1) Ki, fluorogenic substrate assay. Format: biochemical. Particulars: 37° C.

Sequence of tissue kallikrein (HK1) (P06870 25-262): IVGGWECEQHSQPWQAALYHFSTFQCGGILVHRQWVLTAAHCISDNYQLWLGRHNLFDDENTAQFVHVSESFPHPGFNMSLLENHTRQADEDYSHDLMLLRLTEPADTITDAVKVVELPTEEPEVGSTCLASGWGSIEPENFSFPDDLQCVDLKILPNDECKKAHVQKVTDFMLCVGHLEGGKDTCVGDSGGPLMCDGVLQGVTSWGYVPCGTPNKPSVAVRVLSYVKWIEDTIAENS
Sequence of human FVIIa (P08709 61-212): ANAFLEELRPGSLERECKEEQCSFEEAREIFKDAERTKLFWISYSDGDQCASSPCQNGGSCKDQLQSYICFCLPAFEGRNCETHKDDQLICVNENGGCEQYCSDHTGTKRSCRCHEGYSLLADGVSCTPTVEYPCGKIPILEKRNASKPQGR
Sequence of human FVIIa (P08709 213-466): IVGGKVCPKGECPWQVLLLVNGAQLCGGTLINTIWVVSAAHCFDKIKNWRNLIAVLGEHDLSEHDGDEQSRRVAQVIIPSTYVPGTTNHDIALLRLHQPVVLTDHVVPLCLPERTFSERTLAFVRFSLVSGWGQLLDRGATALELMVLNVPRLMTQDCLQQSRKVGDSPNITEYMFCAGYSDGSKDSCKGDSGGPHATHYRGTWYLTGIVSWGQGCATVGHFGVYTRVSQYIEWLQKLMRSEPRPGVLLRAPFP
Sequence of human FVIIa (P13726 33-295 partner): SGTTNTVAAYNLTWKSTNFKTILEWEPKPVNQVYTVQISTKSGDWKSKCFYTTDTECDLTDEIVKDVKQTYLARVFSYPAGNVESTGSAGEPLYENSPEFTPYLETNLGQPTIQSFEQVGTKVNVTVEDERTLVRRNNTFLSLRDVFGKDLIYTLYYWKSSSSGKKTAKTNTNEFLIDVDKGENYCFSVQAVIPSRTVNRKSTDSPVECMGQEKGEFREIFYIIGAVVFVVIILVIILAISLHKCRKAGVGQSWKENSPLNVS

On to `Cc1cc2ccc1[C@@H](C)COC(=O)Nc1cc(F)c(OCCN3CCCC3=O)c(c1)CN(C)C(=O)[C@@H]2Nc1ccc2c(N)nccc2c1.O=C(O)C(F)(F)F` [Example 35, (2R,15R)-2-[(1-Aminoisoquinolin-6-yl)amino]-8-fluoro-4,15,20-trimethyl-7-[2-(2-oxopyrrolidin-1-yl)ethoxy]-13-oxa-4,11-diazatricyclo[14.2.2.16,10]henicosa-1(18),6,8,10 (21),16,19-hexaene-3,12-dione; trifluoroacetic acid], for which, in assay [1], the Ki – broadly, a dissociation constant, usually derived from enzyme kinetics or from competition with a known ligand – was 0.14 nM and the “Ki(HK1)/Ki(FVIIa)” value was 1500. This compound also displayed a Ki in assay [2] of 210 nM.

Regarding `Cc1cc2ccc1[C@@H](C)COC(=O)Nc1ccc(C3(c4nnn[nH]4)CC3)c(c1)CN(C)C(=O)[C@@H]2Nc1ccc2c(N)nccc2c1.O=C(O)C(F)(F)F` [Example 36, (2R,15R)-2-[(1-Aminoisoquinolin-6-yl)amino]-4,15,20-trimethyl-7-[1-(1H-1,2,3,4-tetrazol-5-yl)cyclopropyl]-13-oxa-4,11-diazatricyclo[14.2.2.1^6,10]henicosa-1(18),6,8,10 (21),16,19-hexaene-3,12-dione; trifluoroacetic acid], in assay [1], the Ki turned out to be 0.12 nM and the “Ki(HK1)/Ki(FVIIa)” value amounted to 1917. In assay [2], this compound came in with a Ki of 230 nM.

For `COC[C@H](C)Oc1c(F)cc2cc1CN(C)C(=O)[C@H](Nc1ccc3c(N)nccc3c1)c1ccc(c(C)c1)[C@@H](C)COC(=O)N2.O=C(O)C(F)(F)F` [Example 37, (2R,15R)-2-[(1-Aminoisoquinolin-6-yl)amino]-8-fluoro-7-{[(2S)-1-methoxypropan-2-yl]oxy}-4,15,20-trimethyl-13-oxa-4,11-diazatricyclo[14.2.2.1^6,10]henicosa-1(18),6,8,10 (21),16,19-hexaene-3,12-dione; trifluoroacetic acid], the Ki in assay [1] amounted to 0.14 nM; in assay [2] it was 190 nM. Also, the “Ki(HK1)/Ki(FVIIa)” value in assay [1] came out at 1357.

Consider `Cc1cc2ccc1[C@@H](C)COC(=O)Nc1cc(F)c(O[C@@H]3CCOC3)c(c1)CN(C)C(=O)[C@@H]2Nc1ccc2c(N)nccc2c1.O=C(O)C(F)(F)F` [Example 38, (2R,15R)-2-[(1-Aminoisoquinolin-6-yl)amino]-8-fluoro-4,15,20-trimethyl-7-[(3R)-oxolan-3-yloxy]-13-oxa-4,11-diazatricyclo[14.2.2.1^6,10]henicosa-1(18),6,8,10 (21),16,19-hexaene-3,12-dione; trifluoroacetic acid], for which, in assay [1], the Ki came out at 0.05 nM and the “Ki(HK1)/Ki(FVIIa)” value amounted to 5800. In assay [2], the Ki stood at 290 nM.

With `Cc1cc2ccc1[C@@H](C)COC(=O)Nc1cc(F)c(O[C@H]3CCOC3)c(c1)CN(C)C(=O)C2Nc1ccc2c(N)nccc2c1.O=C(O)C(F)(F)F` (stereo partly drawn) [Example 39, (15R)-2-[(1-Aminoisoquinolin-6-yl)amino]-8-fluoro-4,15,20-trimethyl-7-[(3S)-oxolan-3-yloxy]-13-oxa-4,11-diazatricyclo[14.2.2.1^6,10]henicosa-1(18),6,8,10 (21),16,19-hexaene-3,12-dione; trifluoroacetic acid], in assay [1], the Ki was 0.02 nM and the “Ki(HK1)/Ki(FVIIa)” value amounted to 5000. Moreover, in assay [2], the Ki was determined as 100 nM.
